Test system: LG0567-F671-PDC KRAS tumor spheroid viability
Assay: Anticancer human tumor LG0567-F671-PDC patient-derived lung adenocarcinoma cell line growth inhibition [KRAS2]
Details: spheroids with HUVEC and MSC; for IC50: curve of first compound; for viability, T/C: stronger effect = lower value
Summary of the method: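 KRAS-mutant tumor cells were grown as spheroids with HUVEC endothelial cells and human MSCs as stroma. Targeted agents were tested alone and with KRAS pathway inhibitors. Doses started at or near clinical Cmax, or 10 microM, descending half-log.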

[1] = second compound 0.1 µM, first compound 0.000316 µM
[2] = second compound 0.1 µM, first compound 0.001 µM
[3] = second compound 0.1 µM, first compound 0.00316 µM
[4] = second compound 0.1 µM, first compound 0.01 µM
[5] = second compound 0.1 µM, first compound 0.0316 µM
[6] = second compound 0.316 µM, first compound 0.000316 µM
[7] = second compound 0.316 µM, first compound 0.001 µM
[8] = second compound 0.316 µM, first compound 0.00316 µM
[9] = second compound 0.316 µM, first compound 0.01 µM
[10] = second compound 0.316 µM, first compound 0.0316 µM
[11] = second compound 1 µM, first compound 0.000316 µM
[12] = second compound 1 µM, first compound 0.001 µM
[13] = second compound 1 µM, first compound 0.00316 µM
[14] = second compound 1 µM, first compound 0.01 µM
[15] = second compound 1 µM, first compound 0.0316 µM
[16] = second compound 3.16 µM, first compound 0.000316 µM
[17] = second compound 3.16 µM, first compound 0.001 µM
[18] = second compound 3.16 µM, first compound 0.00316 µM
[19] = second compound 3.16 µM, first compound 0.01 µM
[20] = second compound 3.16 µM, first compound 0.0316 µM
[21] = second compound 10 µM, first compound 0.000316 µM
[22] = second compound 10 µM, first compound 0.001 µM
[23] = second compound 10 µM, first compound 0.00316 µM
[24] = second compound 10 µM, first compound 0.01 µM
[25] = second compound 10 µM, first compound 0.0316 µM
[26] = second compound 0.1 µM, first compound 0.1 µM
[27] = second compound 0.316 µM, first compound 0.1 µM
[28] = second compound 1 µM, first compound 0.1 µM
[29] = second compound 3.16 µM, first compound 0.1 µM
[30] = second compound 10 µM, first compound 0.1 µM
[31] = second compound 0.1 µM, first compound 0.316 µM
[32] = second compound 0.1 µM, first compound 1 µM
[33] = second compound 0.1 µM, first compound 3.16 µM
[34] = second compound 0.1 µM, first compound 10 µM
[35] = second compound 0.316 µM, first compound 0.316 µM
[36] = second compound 0.316 µM, first compound 1 µM
[37] = second compound 0.316 µM, first compound 3.16 µM
[38] = second compound 0.316 µM, first compound 10 µM
[39] = second compound 1 µM, first compound 0.316 µM
[40] = second compound 1 µM, first compound 1 µM
[41] = second compound 1 µM, first compound 3.16 µM
[42] = second compound 1 µM, first compound 10 µM
[43] = second compound 3.16 µM, first compound 0.316 µM
[44] = second compound 3.16 µM, first compound 1 µM
[45] = second compound 3.16 µM, first compound 3.16 µM
[46] = second compound 3.16 µM, first compound 10 µM
[47] = second compound 10 µM, first compound 0.316 µM
[48] = second compound 10 µM, first compound 1 µM
[49] = second compound 10 µM, first compound 3.16 µM
[50] = second compound 10 µM, first compound 10 µM
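Also: drug exposure lasted seven days after spheroids formed for three days.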
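For viability, T/C in this document: 100% = DMSO vehicle control viability.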

## CC(=O)Nc1cccc(-n2c(=O)n(C3CC3)c(=O)c3c(Nc4ccc(I)cc4F)n(C)c(=O)c(C)c32)c1 + CNCc1ccccc1-c1csc(C(C)Nc2nc(C)nc3cc(OC)c(OC)cc23)c1
Second compound 0.1 µM
  IC50: 2.08 nM
Second compound 0.316 µM
  IC50: 0.799 nM
Second compound 1 µM
  IC50: 0.813 nM
Second compound 3.16 µM
  IC50: < 0.1 nM
Second compound 10 µM
  IC50: < 0.1 nM
Second compound 0.1 µM, first compound 0.0001 µM
  viability, T/C: 73.6%
[1]
  viability, T/C: 68.3%
[2]
  viability, T/C: 49.1%
[3]
  viability, T/C: 52.5%
[4]
  viability, T/C: 29.4%
[5]
  viability, T/C: 11.6%
Second compound 0.316 µM, first compound 0.0001 µM
  viability, T/C: 65.1%
[6]
  viability, T/C: 54.7%
[7]
  viability, T/C: 47.8%
[8]
  viability, T/C: 33.4%
[9]
  viability, T/C: 39%
[10]
  viability, T/C: 8.76%
Second compound 1 µM, first compound 0.0001 µM
  viability, T/C: 61.8%
[11]
  viability, T/C: 63.2%
[12]
  viability, T/C: 46.9%
[13]
  viability, T/C: 26.8%
[14]
  viability, T/C: 17.9%
[15]
  viability, T/C: 8.07%
Second compound 3.16 µM, first compound 0.0001 µM
  viability, T/C: 2.63%
[16]
  viability, T/C: 1.14%
[17]
  viability, T/C: 0.22%
[18]
  viability, T/C: 0.57%
[19]
  viability, T/C: 0.29%
[20]
  viability, T/C: 0.3%
Second compound 10 µM, first compound 0.0001 µM
  viability, T/C: 1.49%
[21]
  viability, T/C: 0.17%
[22]
  viability, T/C: 0.53%
[23]
  viability, T/C: 0.14%
[24]
  viability, T/C: 0.14%
[25]
  viability, T/C: 0.24%

## CN(C)C/C=C/C(=O)Nc1cc2c(Nc3ccc(F)c(Cl)c3)ncnc2cc1O[C@H]1CCOC1 + CNCc1ccccc1-c1csc(C(C)Nc2nc(C)nc3cc(OC)c(OC)cc23)c1
Second compound 0.1 µM
  IC50: 24.8 nM
Second compound 0.316 µM
  IC50: 17.1 nM
Second compound 1 µM
  IC50: 6.76 nM
Second compound 3.16 µM
  IC50: 0.404 nM
Second compound 10 µM
  IC50: < 0.316 nM
[1]
  viability, T/C: 88%
[2]
  viability, T/C: 71.5%
[3]
  viability, T/C: 65.5%
[4]
  viability, T/C: 49%
[5]
  viability, T/C: 46.9%
[26]
  viability, T/C: 51.3%
[6]
  viability, T/C: 77.9%
[7]
  viability, T/C: 72.8%
[8]
  viability, T/C: 59.7%
[9]
  viability, T/C: 52%
[10]
  viability, T/C: 43.5%
[27]
  viability, T/C: 53.1%
[11]
  viability, T/C: 54.7%
[12]
  viability, T/C: 61.3%
[13]
  viability, T/C: 49.4%
[14]
  viability, T/C: 48.2%
[15]
  viability, T/C: 44.2%
[28]
  viability, T/C: 37.4%
[16]
  viability, T/C: 54.9%
[17]
  viability, T/C: 31.7%
[18]
  viability, T/C: 0.31%
[19]
  viability, T/C: 0.13%
[20]
  viability, T/C: 0.63%
[29]
  viability, T/C: 0.28%
[21]
  viability, T/C: 0.28%
[22]
  viability, T/C: 0.22%
[23]
  viability, T/C: 0.1%
[24]
  viability, T/C: 0.38%
[25]
  viability, T/C: 1.14%
[30]
  viability, T/C: 0.66%

## COC(=O)c1ccc2c(C(=Nc3ccc(N(C)C(=O)CN4CCN(C)CC4)cc3)c3ccccc3)c(O)[nH]c2c1 + CNCc1ccccc1-c1csc(C(C)Nc2nc(C)nc3cc(OC)c(OC)cc23)c1
Second compound 0.1 µM
  IC50: > 10000 nM
Second compound 0.316 µM
  IC50: < 31.6 nM
Second compound 1 µM
  IC50: 426 nM
Second compound 3.16 µM
  IC50: < 31.6 nM
Second compound 10 µM
  IC50: < 31.6 nM
[5]
  viability, T/C: 66.3%
[26]
  viability, T/C: 57.4%
[31]
  viability, T/C: 57.2%
[32]
  viability, T/C: 59.2%
[33]
  viability, T/C: 65.4%
[34]
  viability, T/C: 56.4%
[10]
  viability, T/C: 50.6%
[27]
  viability, T/C: 45.5%
[35]
  viability, T/C: 39.7%
[36]
  viability, T/C: 53.6%
[37]
  viability, T/C: 29.4%
[38]
  viability, T/C: 41.7%
[15]
  viability, T/C: 52.5%
[28]
  viability, T/C: 48.5%
[39]
  viability, T/C: 52.8%
[40]
  viability, T/C: 46.9%
[41]
  viability, T/C: 2.38%
[42]
  viability, T/C: 3.49%
[20]
  viability, T/C: 1.05%
[29]
  viability, T/C: 2.43%
[43]
  viability, T/C: 0.68%
[44]
  viability, T/C: 0.71%
[45]
  viability, T/C: 0.64%
[46]
  viability, T/C: 0.52%
[25]
  viability, T/C: 1.55%
[30]
  viability, T/C: 1.48%
[47]
  viability, T/C: 2.71%
[48]
  viability, T/C: 2.27%
[49]
  viability, T/C: 0.69%
[50]
  viability, T/C: 0.4%

## COc1cc(Nc2ncc3c(n2)-c2ccc(Cl)cc2C(c2c(F)cccc2OC)=NC3)ccc1C(=O)O + CNCc1ccccc1-c1csc(C(C)Nc2nc(C)nc3cc(OC)c(OC)cc23)c1
Second compound 0.1 µM
  IC50: 3000 nM
Second compound 0.316 µM
  IC50: 343 nM
Second compound 1 µM
  IC50: 262 nM
Second compound 3.16 µM
  IC50: < 31.6 nM
Second compound 10 µM
  IC50: < 31.6 nM
[5]
  viability, T/C: 72%
[26]
  viability, T/C: 62%
[31]
  viability, T/C: 58.1%
[32]
  viability, T/C: 60.6%
[33]
  viability, T/C: 51.4%
[34]
  viability, T/C: 37.8%
[10]
  viability, T/C: 56.3%
[27]
  viability, T/C: 54.3%
[35]
  viability, T/C: 48.2%
[36]
  viability, T/C: 45.6%
[37]
  viability, T/C: 42.4%
[38]
  viability, T/C: 32%
[15]
  viability, T/C: 52.4%
[28]
  viability, T/C: 53.4%
[39]
  viability, T/C: 47%
[40]
  viability, T/C: 48.2%
[41]
  viability, T/C: 37.8%
[42]
  viability, T/C: 29%
[20]
  viability, T/C: 12.8%
[29]
  viability, T/C: 16.8%
[43]
  viability, T/C: 14%
[44]
  viability, T/C: 3.3%
[45]
  viability, T/C: 0.97%
[46]
  viability, T/C: 1.05%
[25]
  viability, T/C: 0.9%
[30]
  viability, T/C: 0.24%
[47]
  viability, T/C: 0.13%
[48]
  viability, T/C: 0.43%
[49]
  viability, T/C: 0.12%
[50]
  viability, T/C: 1.01%

## O=C(c1cc(Cc2n[nH]c(=O)c3ccccc23)ccc1F)N1CCN(C(=O)C2CC2)CC1 + CNCc1ccccc1-c1csc(C(C)Nc2nc(C)nc3cc(OC)c(OC)cc23)c1
Second compound 0.1 µM
  IC50: > 10000 nM
Second compound 0.316 µM
  IC50: > 10000 nM
Second compound 1 µM
  IC50: > 10000 nM
Second compound 3.16 µM
  IC50: 3590 nM
Second compound 10 µM
  IC50: < 31.6 nM
[5]
  viability, T/C: 88.1%
[26]
  viability, T/C: 95.4%
[31]
  viability, T/C: 80.6%
[32]
  viability, T/C: 79.5%
[33]
  viability, T/C: 74.1%
[34]
  viability, T/C: 81.6%
[10]
  viability, T/C: 69.6%
[27]
  viability, T/C: 58.8%
[35]
  viability, T/C: 63.9%
[36]
  viability, T/C: 52.8%
[37]
  viability, T/C: 61.5%
[38]
  viability, T/C: 60.5%
[15]
  viability, T/C: 78.1%
[28]
  viability, T/C: 72.2%
[39]
  viability, T/C: 68.3%
[40]
  viability, T/C: 71.5%
[41]
  viability, T/C: 67%
[42]
  viability, T/C: 64.4%
[20]
  viability, T/C: 46.5%
[29]
  viability, T/C: 80%
[43]
  viability, T/C: 84.2%
[44]
  viability, T/C: 0.72%
[45]
  viability, T/C: 69.7%
[46]
  viability, T/C: 0.31%
[25]
  viability, T/C: 0.22%
[30]
  viability, T/C: 0.82%
[47]
  viability, T/C: 0.19%
[48]
  viability, T/C: 0.61%
[49]
  viability, T/C: 0.17%
[50]
  viability, T/C: 0.2%
